Patent US20260265216A1, “NOVEL THIOREDOXIN REDUCTASE INHIBITORS” (GENEXPLAIN GMBH, priority 2021, published 2026)
Counter-ions that a name gives are not always drawn.

Assays:
[1] = tested on: HCT116-Cas9; test: Growth suppression assay (resazurin); type: cell-based; conditions: 48 hours
Method: (§1) Cells were grown in 96-well plates at a density of 3000 cells per well with or without doxycycline and treated with compounds. After 48 hours of incubation the proliferative cell reagent resazurin (Thermo Fisher Scientific) was added to the cells. The degree of resazurin reduction, which reflects cell viability, was measured by microplate reader by monitoring the absorbance at 570 nm and 600 nm, according to the manufacturer.
(§2) Two carcinoma cell lines, MCF7 (breast carcinoma) and HCT116 (colon carcinoma) grown in 96-well plates, were treated with increasing concentrations of the synthesized compounds, ranging from […]. After 48 hours of incubation the proliferative cell reagent resazurin was added to the cells. The degree of resazurin reduction, which reflects cell viability, was measured by microplate reader by monitoring the absorbance at 570 nm and 600 nm, according to the manufacturer and the IC50 was determined (Table 1).

[2] = Solubility; type: physicochemical; conditions: solvent in which soluble
[3] = tested on: MCF7-Cas9; test: Growth suppression assay (resazurin); type: cell-based; conditions: 48 hours, hydrochloride
Method: as §1, §2

## N#Cc1c(-c2ccncc2)[n+]([O-])c2cc(F)c(N3CCOCC3)cc2[n+]1[O-] [1b*MsOH, 6-Fluoro-7-(morpholin-4-yl)-3-(pyridin-4-yl)quinoxaline-2-carbonitrile-1,4-dioxide methanesulfonate]
[1]; methanesulfonate
  IC50: 3.4 µM

## N#Cc1c(-c2cccnc2)[n+]([O-])c2cc(N3CCOCC3)c(F)cc2[n+]1[O-] [Compound 1c, 7-Fluoro-6-(morpholin-4-yl)-3-(pyridin-3-yl)quinoxaline-2-carbonitrile-1,4-dioxide]
[2]
  Solubility: Warm DMSO

## N#Cc1c(-c2ccncc2)[n+]([O-])c2cc(N3CCOCC3)c(F)cc2[n+]1[O-] [1a*HCl, 7-Fluoro-6-(morpholin-4-yl)-3-(pyridin-4-yl)quinoxaline-2-carbonitrile-1,4-dioxide hydrochloride]
[3]
  IC50: > 10 µM
[1]; hydrochloride
  IC50: 9.3 µM

## N#Cc1c(-c2cccnc2)[n+]([O-])c2cc(F)c(N3CCCCC3)cc2[n+]1[O-] [Compound 1g, 6-Fluoro-7-(piperidin-1-yl)-3-(pyridin-3-yl)quinoxaline-2-carbonitrile-1,4-dioxide]
[2]
  Solubility: Warm DMSO

## N#Cc1c(-c2cccnc2)[n+]([O-])c2cc(F)c(N3CCCC3)cc2[n+]1[O-] [Compound 1f, 6-Fluoro-7-(pyrrolidin-1-yl)-3-(pyridin-3-yl)quinoxaline-2-carbonitrile-1,4-dioxide]
[2]
  Solubility: Warm DMSO

## N#Cc1c(-c2ccncc2)[n+]([O-])c2cc(F)c(N3CCOCC3)cc2[n+]1[O-] [Compound 1b, 6-Fluoro-7-(morpholin-4-yl)-3-(pyridin-4-yl)quinoxaline-2-carbonitrile-1,4-dioxide]
[2]
  Solubility: Warm DMSO

## N#Cc1c(-c2cccnc2)[n+]([O-])c2cc(F)c(N3CCOCC3)cc2[n+]1[O-] [Compound 1d, 6-Fluoro-7-(morpholin-4-yl)-3-(pyridin-3-yl)quinoxaline-2-carbonitrile-1,4-dioxide]
[2]
  Solubility: Warm DMSO

## N#Cc1c(-c2ccncc2)[n+]([O-])c2cc(N3CCOCC3)c(F)cc2[n+]1[O-] [Compound 1a, 7-Fluoro-6-(morpholin-4-yl)-3-(pyridin-4-yl)quinoxaline-2-carbonitrile 1,4-dioxide]
[2]
  Solubility: Warm DMSO
